Laboratory results taken from the NIST ThermoML archive (doi:10.1021/acs.jced.8b00975).

Details: Liquid, Vibrating tube method

C=C(C)C(=O)OCCN(C)C [2-(dimethylamino)ethyl methylpropenoate]
mass density [kg/m3]
Details	100 kPa	5000 kPa	10000 kPa	15000 kPa	20000 kPa	25000 kPa	30000 kPa	35000 kPa
293.15 K	933.13	936.87	940.43	943.83	947.11	950.3	953.43	956.52
303.15 K	923.03	926.88	930.61	934.24	937.79	941.28	944.74	948.19
313.15 K	914.01	917.99	921.97	925.87	929.71	933.48	937.2	940.87

CCCCO [butan-1-ol]
mass density [kg/m3]
Details	100 kPa	5000 kPa	10000 kPa	15000 kPa	20000 kPa	25000 kPa	30000 kPa	35000 kPa
293.15 K	809.28	813.04	816.54	819.83	822.97	826	828.99	831.99
303.15 K	801.9	806	809.77	813.26	816.52	819.61	822.58	825.48
313.15 K	794.32	798.42	802.22	805.8	809.2	812.49	815.73	818.97

CCO [ethanol]
mass density [kg/m3]
Details	100 kPa	5000 kPa	10000 kPa	15000 kPa	20000 kPa	25000 kPa	30000 kPa	35000 kPa
293.15 K	788.94	793.35	797.51	801.44	805.18	808.74	812.17	815.49
303.15 K	780.83	785.54	789.89	793.92	797.7	801.28	804.72	808.06
313.15 K	772.04	776.85	781.35	785.59	789.62	793.47	797.2	800.84

CO [methanol]
mass density [kg/m3]
Details	100 kPa	5000 kPa	10000 kPa	15000 kPa	20000 kPa	25000 kPa	30000 kPa	35000 kPa
293.15 K	791.15	795.92	800.41	804.64	808.67	812.52	816.25	819.89
303.15 K	781.84	786.9	791.61	796.01	800.14	804.05	807.78	811.37
313.15 K	772.35	777.48	782.37	786.99	791.38	795.59	799.69	803.73

CCCCCO [pentan-1-ol]
mass density [kg/m3]
Details	100 kPa	5000 kPa	10000 kPa	15000 kPa	20000 kPa	25000 kPa	30000 kPa	35000 kPa
293.15 K	815.25	818.83	822.19	825.37	828.41	831.36	834.24	837.11
303.15 K	808.05	811.93	815.5	818.82	821.92	824.88	827.74	830.55
313.15 K	800.67	804.61	808.28	811.75	815.06	818.26	821.41	824.56

CCCO [propan-1-ol]
mass density [kg/m3]
Details	100 kPa	5000 kPa	10000 kPa	15000 kPa	20000 kPa	25000 kPa	30000 kPa	35000 kPa
293.15 K	803.17	807.25	811.02	814.54	817.87	821.05	824.15	827.21
303.15 K	795.52	799.83	803.8	807.49	810.95	814.23	817.38	820.48
313.15 K	787.3	791.61	795.67	799.52	803.19	806.72	810.15	813.5
